In patent US20250312497A1, “METHOD OF TREATING PROSTATE CANCER” (Novartis AG, priority 2022, published 2025):

System: PSMA-positive mCRPC participants
Assay: PSMAfore phase III: adverse events, serious adverse events, safety topics and deaths (safety set)
Type: in vivo, human
[1] = DCO 2 Oct 2022, safety set, preferred term
[2] = DCO 2 Oct 2022, safety set, system organ class
[3] = DCO 21 Jun 2023, ARDT prior to crossover
[4] = DCO 21 Jun 2023, most common AEs by PT (>10% in either arm)
[5] = DCO 21 Jun 2023, safety set, All Grades
[6] = DCO 21 Jun 2023, safety set, Grade >=3
[7] = Safety set, [[…]Lu]Lu-PSMA-617 N = 227, ARDT N = 232
[8] = Safety set, [[…]Lu]Lu-PSMA-617 N = 227, ARDT N = 232 (prior to crossover), CTCAE V5.0

O=C([O-])CN1CCN(CC(=O)[O-])CCN(CC(=O)NCC2CCC(C(=O)N[C@@H](Cc3ccc4ccccc4c3)C(=O)NCCCC[C@H](NC(=O)N[C@@H](CCC(=O)O)C(=O)O)C(=O)O)CC2)CCN(CC(=O)[O-])CC1.[177Lu+3] (stereo partly shown) [[177Lu]Lu-PSMA-617, lutetium (177Lu) vipivotide tetraxetan]
On-treatment deaths: Coma [1]: 0 n (%)
On-treatment deaths: Dyspnoea [1]: 0 n (%)
On-treatment deaths: Intestinal ischaemia [1]: 1 (0.4) n (%)
On-treatment deaths: Sepsis [1]: 1 (0.4) n (%)
On-treatment deaths: Cardiac disorders [2]: 1 (0.4) n (%)
On-treatment deaths: Gastrointestinal disorders [2]: 1 (0.4) n (%)
On-treatment deaths: Infections and infestations [2]: 2 (0.9) n (%)
On-treatment deaths: Nervous system disorders [2]: 0 n (%)
On-treatment deaths: Respiratory, thoracic and mediastinal disorders [2]: 0 n (%)
AEs leading to discontinuation, Treatment-related [3]: 3.1%
Grade≥3 AEs, Treatment-related [3]: 11.0%
Serious AEs, Treatment-related [3]: 3.1%
Anaemia [4]: 24.2%
Arthralgia [4]: 18.9%
Asthenia [4]: 31.7%
Back pain [4]: 12.3%
COVID-19 [4]: 16.3%
Constipation [4]: 22.0%
Decreased appetite [4]: 21.1%
Diarrhoea [4]: 16.3%
Dry mouth [4]: 57.3%
Fatigue [4]: 22.9%
Nausea [4]: 31.3%
Oedema peripheral [4]: 8.4%
Vomiting [4]: 11.5%
Weight decreased [4]: 6.6%
AE preferred term: Anaemia [5]: 55 (24.2) n (%)
AE preferred term: Arthralgia [5]: 43 (18.9) n (%)
AE preferred term: Asthenia [5]: 72 (31.7) n (%)
AE preferred term: Back pain [5]: 28 (12.3) n (%)
AE preferred term: COVID-19 [5]: 37 (16.3) n (%)
AE preferred term: Constipation [5]: 50 (22.0) n (%)
AE preferred term: Decreased appetite [5]: 48 (21.1) n (%)
AE preferred term: Diarrhoea [5]: 37 (16.3) n (%)
AE preferred term: Dry mouth [5]: 130 (57.3) n (%)
AE preferred term: Fatigue [5]: 52 (22.9) n (%)
AE preferred term: Nausea [5]: 71 (31.3) n (%)
AE preferred term: Oedema peripheral [5]: 19 (8.4) n (%)
AE preferred term: Vomiting [5]: 26 (11.5) n (%)
AE preferred term: Weight decreased [5]: 15 (6.6) n (%)
Adverse events (participants with at least one event) [5]: 223 (98.2) n (%)
Adverse events leading to discontinuation [5]: 13 (5.7) n (%)
Adverse events leading to discontinuation, Treatment-related [5]: 7 (3.1) n (%)
Adverse events leading to dose adjustment [5]: 8 (3.5) n (%)
Adverse events leading to dose interruption [5]: 27 (11.9) n (%)
Adverse events requiring additional therapy [5]: 162 (71.4) n (%)
Adverse events, Treatment-related [5]: 196 (86.3) n (%)
Fatal serious adverse events [5]: 4 (1.8) n (%)
Fatal serious adverse events, Treatment-related [5]: 0 n (%)
Serious adverse events [5]: 46 (20.3) n (%)
Serious adverse events, Treatment-related [5]: 7 (3.1) n (%)
AE preferred term: Anaemia [6]: 14 (6.2) n (%)
AE preferred term: Arthralgia [6]: 0 n (%)
AE preferred term: Asthenia [6]: 1 (0.4) n (%)
AE preferred term: Back pain [6]: 2 (0.9) n (%)
AE preferred term: COVID-19 [6]: 1 (0.4) n (%)
AE preferred term: Constipation [6]: 1 (0.4) n (%)
AE preferred term: Decreased appetite [6]: 0 n (%)
AE preferred term: Diarrhoea [6]: 0 n (%)
AE preferred term: Dry mouth [6]: 3 (1.3) n (%)
AE preferred term: Fatigue [6]: 0 n (%)
AE preferred term: Nausea [6]: 0 n (%)
AE preferred term: Oedema peripheral [6]: 0 n (%)
AE preferred term: Vomiting [6]: 0 n (%)
AE preferred term: Weight decreased [6]: 2 (0.9) n (%)
Adverse events (participants with at least one event) [6]: 78 (34.4) n (%)
Adverse events leading to discontinuation [6]: 8 (3.5) n (%)
Adverse events leading to discontinuation, Treatment-related [6]: 4 (1.8) n (%)
Adverse events leading to dose adjustment [6]: 3 (1.3) n (%)
Adverse events leading to dose interruption [6]: 13 (5.7) n (%)
Adverse events requiring additional therapy [6]: 48 (21.1) n (%)
Adverse events, Treatment-related [6]: 25 (11.0) n (%)
Fatal serious adverse events [6]: 4 (1.8) n (%)
Fatal serious adverse events, Treatment-related [6]: 0 n (%)
Serious adverse events [6]: 41 (18.1) n (%)
Serious adverse events, Treatment-related [6]: 6 (2.6) n (%)
Serious adverse event Acute kidney injury, All Grades [7]: 2 (0.9) n (%)
Serious adverse event Acute kidney injury, Grade >=3 [7]: 2 (0.9) n (%)
Serious adverse event Anaemia, All Grades [7]: 4 (1.8) n (%)
Serious adverse event Anaemia, Grade >=3 [7]: 3 (1.3) n (%)
Serious adverse event COVID-19, All Grades [7]: 1 (0.4) n (%)
Serious adverse event COVID-19, Grade >=3 [7]: 1 (0.4) n (%)
Serious adverse event Femur fracture, All Grades [7]: 2 (0.9) n (%)
Serious adverse event Femur fracture, Grade >=3 [7]: 2 (0.9) n (%)
Serious adverse event Haematuria, All Grades [7]: 0 n (%)
Serious adverse event Haematuria, Grade >=3 [7]: 0 n (%)
Serious adverse event Pain, All Grades [7]: 1 (0.4) n (%)
Serious adverse event Pain, Grade >=3 [7]: 1 (0.4) n (%)
Serious adverse event Pneumonia, All Grades [7]: 1 (0.4) n (%)
Serious adverse event Pneumonia, Grade >=3 [7]: 1 (0.4) n (%)
Serious adverse event Sepsis, All Grades [7]: 3 (1.3) n (%)
Serious adverse event Sepsis, Grade >=3 [7]: 3 (1.3) n (%)
Serious adverse event Spinal cord compression, All Grades [7]: 2 (0.9) n (%)
Serious adverse event Spinal cord compression, Grade >=3 [7]: 2 (0.9) n (%)
Serious adverse event Urinary retention, All Grades [7]: 1 (0.4) n (%)
Serious adverse event Urinary retention, Grade >=3 [7]: 1 (0.4) n (%)
Serious adverse event Urinary tract infection, All Grades [7]: 4 (1.8) n (%)
Serious adverse event Urinary tract infection, Grade >=3 [7]: 3 (1.3) n (%)
Serious adverse events: number of participants with at least one event, All Grades [8]: 46 (20.3) n (%)
Serious adverse events: number of participants with at least one event, Grade >=3 [8]: 41 (18.1) n (%)
